Experimental data taken from PMC12136225, “Antinociceptive effects of intrathecal Neuropeptide B/W receptor 1 agonists in mouse acute nociception, peripheral neuropathy, and inflammatory pain models” (Research Square, 2025).

How the values were obtained:
C57BL/6 mice [1] = test: Acute nociception hot plate latency assay; format: in vivo, mouse; conditions: for Duration of significant antinociception after administration / Onset of significant antinociceptive effect / Time of peak antinociceptive effect: i.t. 56 and 100 μg, hot plate, n = 8; for ED50 Hot Plate Latency: i.t. injection, 1 hour following treatment, 52 °C hot plate, % MPE, male and female mice, n = 8, 95% confidence intervals in parentheses
Procedure: (§1) NPB-23 ([…]NH2) and RTIBW-16 ([desaminoTrp^1]-Tyr-Lys-Ava-Ava-Ava-Gly-Arg-Ala-Ala-Gly-Leu-Leu-NH2, compound 30 in Ref. [27]) were synthesized as previously reported. RTIBW-16 and NPB-23 were administered via i.t. injections between L4 and L5 vertebrae with an injection volume of 5 μL. The dosing of these compounds was based on previous literature.
(§2) Intrathecal injections were conducted as previously described; injections occurred between the L4 and L5 vertebrae. Briefly, an ‘injection catheter’ made from a 27-gauge needle and polyethylene (PE) 20 tubing was connected to a 10 μl Hamilton syringe. Injections occurred over 5 sec and were generally accompanied by a hind paw twitch response. A 100% motor recovery rate was observed.
Acute nociception measurements were collected via the hot plate latency assay as previously described. Mice were placed on a heated (52 °C) enclosed Hot Plate Analgesia Meter (Columbus Instruments, Columbus, OH). The latency to jump/lick/shake/flick a hind paw was recorded. A 30 second cut-off was used to prevent tissue damage. Latencies were recorded prior to administration of compounds and at each time point over the 24-hour study (0.5, 1, 1.5, 2, 3, 4, 6, 24 hr time points). Latency measurements were taken by observers blinded to treatment conditions. Mice were given a 1-week washout period between test days.
(§3) Hot plate data were converted to percent maximum possible effect (% MPE) with the following equation: ([experimental test value – baseline value) / (30 sec – baseline value)] * 100). Behavioral data were analyzed using a repeated measures two-way analysis of variance (ANOVA) for RTIBW-16 and NPB-23 treatment time course analysis with time as one factor and compound dosing as a second factor [35]. Individual treatment effects were analyzed using repeated measures one-way ANOVA. Dunnett’s test was used for post hoc analysis following a significant ANOVA result. Two tailed, paired t-tests were conducted to compare the magnitude of baseline von Frey measurements to their respective pre-paclitaxel and pre-carrageenan measurements. A p value of < 0.05 was considered statistically significant. As no significant sex effect was observed, male and female data were collapsed. […] When the mean effect of a drug in an experiment was greater than 50%, the ED50 values and corresponding 95% confidence limits were calculated using linear regression, where slopes were allowed to vary. The computer program GraphPad Prism version 10.3 (GraphPad Software Inc.; San Diego, CA) was used in the statistical analyses. Data are plotted as mean ± the standard error of the mean.

C57BL/6 mice [2] = test: Paclitaxel CIPN model, von Frey mechanical allodynia; format: in vivo, mouse; conditions: for Duration of reversal of mechanical allodynia following treatment: i.t. 100 and 56 μg, paclitaxel CIPN, n = 8
Procedure: as §1
(§4) Paclitaxel was purchased from Bio-Techne (Minneapolis, MN) and was administered in a vehicle solution containing a 1:1:18 ratio of ethanol (100%), polyethylene glycol monooleyl ether (Tokyo Chemical Industry America; Portland, OR), and saline (0.9% w/v NaCl) as previously described. A dosing cycle of paclitaxel consisted of a total of four intraperitoneal (i.p.) paclitaxel injections (8 mg/kg per injection, given every other day. Carrageenan was purchased from Sigma-Aldrich (St. Louis, MO) and made into a 0.3% w/v solution in saline for injections.
as §2
To assess mechanical allodynia within CIPN, mice were habituated to the von Frey testing environment for four consecutive days in 30-minute sessions prior to the first testing session. Baselines were measured as previously described using von Frey monofilaments (North Coast Medical; Morgan Hills, CA) to establish responses to light mechanical touch before paclitaxel or vehicle administration. During testing mice were placed atop a wire mesh screen with spaces 0.5 mm apart. Mice were singly placed beneath an inverted wire mesh basket (8 cm diameter, 15 cm height) and allowed to habituate to the apparatus for 30 minutes before testing. The von Frey assay utilizes a series of calibrated monofilaments (0.4–4.0 g stimulus intensity), applied to the left and right plantar surface of the hind paws utilizing the “up-down” method. […] Responses from the von Frey assay were measured over a 24-hour time course (1, 2, 3, 4, 6, 24 hr timepoints). […]
Hot plate data were converted to percent maximum possible effect (% MPE) with the following equation: ([experimental test value – baseline value) / (30 sec – baseline value)] * 100). Behavioral data were analyzed using a repeated measures two-way analysis of variance (ANOVA) for RTIBW-16 and NPB-23 treatment time course analysis with time as one factor and compound dosing as a second factor [35]. Individual treatment effects were analyzed using repeated measures one-way ANOVA. […]

C57BL/6 mice [3] = test: Carrageenan inflammatory pain model, von Frey mechanical allodynia; format: in vivo, mouse; conditions: for Attenuation of carrageenan-induced mechanical allodynia: i.t. 100 μg and 56 μg; for Attenuation of carrageenan-induced mechanical allodynia / Time of delayed-onset partial mechanical allodynia attenuation after administration: von Frey, n = 8; for ED50 Carrageenan von Frey: i.t. injection, 1 hour following treatment, carrageenan-induced mechanical allodynia, n = 8, 95% confidence intervals in parentheses; for Time of delayed-onset partial mechanical allodynia attenuation after administration: i.t. lower doses of 10 μg and 5.6 μg
Procedure: as §1, §4, §2
After use in the hot plate latency assay, the same cohort was then used for the carrageen model of inflammatory pain. Mice were given at least a one-week washout period between experimental use. Mice were habituated to the von Frey apparatus and were assessed using the same “up-down” method as described earlier. The carrageenan inflammatory pain model was induced as previously described. Briefly, an intraplantar injection of 0.3% w/v carrageenan in a 20 μL volume using a 27-gauge needle was administered into the right hind paw. […]. The left paw served as an internal control for each subject. The change in paw thickness from baseline was assessed with digital caliper measurements. Paw thickness and von Frey responses were measured over a 24-hour time course (1, 2, 3, 4, 6, 24 hr timepoints), with paw thickness measurements occurring immediately after the von Frey assay at each time point. Mechanical allodynia assessments and paw thickness measurements were conducted by observers blinded to treatment conditions. Intraplantar administration of carrageenan and digital caliper measurement of paw edema were conducted with mice restrained utilizing a plexiglass mouse restrainer (Stoelting Co., Wood Dale, IL)
as §3

C57BL/6 mice [4] = test: Carrageenan-induced paw edema (paw thickness, digital caliper); format: in vivo, mouse; conditions: i.t., 1 hour time point, change in paw thickness, n = 8
Procedure: as §1
Paclitaxel was purchased from Bio-Techne (Minneapolis, MN) and was administered in a vehicle solution containing a 1:1:18 ratio of ethanol (100%), polyethylene glycol monooleyl ether (Tokyo Chemical Industry America; Portland, OR), and saline (0.9% w/v NaCl) as previously described. […]
After use in the hot plate latency assay, the same cohort was then used for the carrageen model of inflammatory pain. […] Mice were habituated to the von Frey apparatus and were assessed using the same “up-down” method as described earlier. […] The change in paw thickness from baseline was assessed with digital caliper measurements. Paw thickness and von Frey responses were measured over a 24-hour time course (1, 2, 3, 4, 6, 24 hr timepoints), with paw thickness measurements occurring immediately after the von Frey assay at each time point. […]

[5] = cited from earlier work
Source text: (§5) So far, behavioral studies have mostly been conducted in rats and relied on exogenous administration of endogenous ligands. NPB is a 29 amino acid peptide with a bromine at the C-6 position of the indole moiety in the N-terminal tryptophan (Trp). […] NPW exists in two functional peptide forms consisting of 23 and 30 amino acid residues.

NPBWR1 = conditions: NPB-23 ref 24, 25; RTIBW-16 ref 27; cited from earlier work
Source text: as §5

Substance | Duration of significant antinociception after administration (C57BL/6 mice [1]) | Onset of significant antinociceptive effect (C57BL/6 mice [1]) [h] | Time of peak antinociceptive effect (C57BL/6 mice [1]) [h] | ED50 Hot Plate Latency (C57BL/6 mice [1]) | Duration of reversal of mechanical allodynia following treatment (C57BL/6 mice [2]; von Frey) | Attenuation of carrageenan-induced mechanical allodynia (C57BL/6 mice [3]) | ED50 Carrageenan von Frey (C57BL/6 mice [3]) | Time of delayed-onset partial mechanical allodynia attenuation after administration (C57BL/6 mice [3]) [h] | Effect on carrageenan-induced paw edema (initial swelling) compared to vehicle (C57BL/6 mice [4]) | Metabolic stability in rat plasma [5] | ED50 Paclitaxel CIPN von Frey (C57BL/6 mice [2]; i.t. injection, 1 hour following treatment, reversal of paclitaxel-induced mechanical allodynia, n = 8, 95% confidence intervals in parentheses) | Reversal of CIPN mechanical allodynia at 1 hour timepoint (C57BL/6 mice [2]; i.t., von Frey, 1 hour) | In vitro NPBWR1 agonist activity compared with NPB (NPBWR1)
[desaminoTrp^1]-Tyr-Lys-Ava-Ava-Ava-Gly-Arg-Ala-Ala-Gly-Leu-Leu-NH2 [RTIBW-16] | 2 h | 0.5 | 1.5 | 42.86 (25.09–73.21) μg | up to 3 hours | fully attenuated peak carrageenan-induced mechanical allodynia | 29.47 (21.71–40.00) μg | 3 | significantly reduced the magnitude of initial swelling | improved metabolic stability in rat plasma | – | – | –
Trp-Tyr-Lys-Pro-Ala-Ala-Gly-His-Ser-Ser-Tyr-Ser-Val-Gly-Arg-Ala-Ala-Gly-Leu-Leu-Ser-Gly-Leu-NH2 [NPB-23, truncated human NPB without a bromine at the N-terminal Trp residue; NPBWR1 agonist] | up to 6 hours | 0.5 | 1.5 | 18.36 (10.17–33.15) μg | up to 2 hours | robust mechanical allodynia blockade | 19.92 (13.52–29.35) μg | 2 | significantly reduced the magnitude of initial swelling | – | 45.06 (33.91–59.88) μg | reverse the CIPN mechanical allodynia back to the baseline | equipotent
